{
  "source": "patent US12516046B2",
  "about": "“2-oxo-oxazolidine-5-carboxamides as NAV1.8 inhibitors” (Merck Sharp & Dohme LLC, priority 2020, dated 2026)",
  "data": [
    {"target": "human Nav1.8 (Homo sapiens (Human), UniProt Q9Y5Y9)", "sequence (Q9Y5Y9 whole entry)": "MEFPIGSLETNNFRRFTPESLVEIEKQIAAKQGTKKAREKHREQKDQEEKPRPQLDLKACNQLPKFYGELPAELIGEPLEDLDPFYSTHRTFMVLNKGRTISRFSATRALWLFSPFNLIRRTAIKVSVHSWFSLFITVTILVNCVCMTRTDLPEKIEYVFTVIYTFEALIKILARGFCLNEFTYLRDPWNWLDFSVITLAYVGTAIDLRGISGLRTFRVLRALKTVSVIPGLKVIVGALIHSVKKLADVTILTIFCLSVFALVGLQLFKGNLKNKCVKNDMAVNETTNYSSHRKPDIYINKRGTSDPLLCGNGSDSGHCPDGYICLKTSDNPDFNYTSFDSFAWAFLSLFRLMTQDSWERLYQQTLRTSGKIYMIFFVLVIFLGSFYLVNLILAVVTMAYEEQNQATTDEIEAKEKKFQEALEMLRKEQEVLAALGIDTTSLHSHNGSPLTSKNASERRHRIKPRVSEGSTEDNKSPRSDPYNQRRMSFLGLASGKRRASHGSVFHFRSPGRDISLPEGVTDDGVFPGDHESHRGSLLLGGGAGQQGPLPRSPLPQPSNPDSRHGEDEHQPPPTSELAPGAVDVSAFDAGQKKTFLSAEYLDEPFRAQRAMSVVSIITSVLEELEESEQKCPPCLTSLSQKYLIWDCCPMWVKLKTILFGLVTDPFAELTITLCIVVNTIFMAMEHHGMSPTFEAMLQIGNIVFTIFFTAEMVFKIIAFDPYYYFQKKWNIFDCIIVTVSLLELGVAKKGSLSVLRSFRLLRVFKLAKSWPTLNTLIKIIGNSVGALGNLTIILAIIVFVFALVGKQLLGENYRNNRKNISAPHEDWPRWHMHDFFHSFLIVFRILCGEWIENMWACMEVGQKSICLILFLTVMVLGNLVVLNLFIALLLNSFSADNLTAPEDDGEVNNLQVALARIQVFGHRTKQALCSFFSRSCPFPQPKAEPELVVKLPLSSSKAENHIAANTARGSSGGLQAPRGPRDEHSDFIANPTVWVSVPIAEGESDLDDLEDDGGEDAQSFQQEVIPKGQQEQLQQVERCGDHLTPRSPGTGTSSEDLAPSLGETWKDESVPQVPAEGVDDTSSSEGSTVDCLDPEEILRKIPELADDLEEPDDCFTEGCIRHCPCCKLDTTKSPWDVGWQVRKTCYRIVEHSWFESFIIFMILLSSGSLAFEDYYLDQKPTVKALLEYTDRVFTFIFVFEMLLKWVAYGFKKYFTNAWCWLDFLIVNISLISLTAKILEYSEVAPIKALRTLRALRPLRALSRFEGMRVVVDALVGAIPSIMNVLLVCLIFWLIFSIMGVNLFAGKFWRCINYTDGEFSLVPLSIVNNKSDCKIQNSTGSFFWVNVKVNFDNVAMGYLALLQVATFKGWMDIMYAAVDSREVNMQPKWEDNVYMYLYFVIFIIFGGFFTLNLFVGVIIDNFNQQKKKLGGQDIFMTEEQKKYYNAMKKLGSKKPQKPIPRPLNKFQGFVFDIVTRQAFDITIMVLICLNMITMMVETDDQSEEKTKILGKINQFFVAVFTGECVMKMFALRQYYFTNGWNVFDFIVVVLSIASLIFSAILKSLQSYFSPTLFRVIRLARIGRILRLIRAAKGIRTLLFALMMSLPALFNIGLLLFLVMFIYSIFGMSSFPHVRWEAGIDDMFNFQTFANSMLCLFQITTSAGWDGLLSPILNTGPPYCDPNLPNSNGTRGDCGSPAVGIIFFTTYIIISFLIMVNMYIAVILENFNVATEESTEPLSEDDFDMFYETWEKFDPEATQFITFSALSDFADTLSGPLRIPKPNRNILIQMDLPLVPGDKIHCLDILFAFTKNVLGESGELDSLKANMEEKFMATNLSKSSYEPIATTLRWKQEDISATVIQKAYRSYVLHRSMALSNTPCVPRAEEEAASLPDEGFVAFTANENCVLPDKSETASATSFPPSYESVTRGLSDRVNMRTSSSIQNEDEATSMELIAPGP", "test": "Nav1.8 Qube® Assay (automated 384-well patch-clamp)", "type": "cell-based", "conditions": "human Nav1.8 channels stably expressed in HEK 293 cells", "source_text": "Qube® Assay Experimental Procedure", "units": {"IC50": "nM"}, "values": [
      {"compound": "O=C1NC[C@@H](C(=O)NC(c2ccc(Cl)cc2)c2c[nH]c(C(F)(F)F)n2)O1", "note": "(single isomer, unassigned) [Example 17B, (S)-N-((R or S)-(4-chlorophenyl)(2-(trifluoromethyl)-1H-imidazol-4-yl)methyl)-2-oxooxazolidine-5-carboxamide]", "IC50": 10600},
      {"compound": "O=C1NC[C@@H](C(=O)NC(c2ccc(Cl)cc2)c2coc(C(F)(F)F)n2)O1", "note": "(single isomer, unassigned) [Example 18A, (S)-N-((R or S)-(4-chlorophenyl)(2-(trifluoromethyl)oxazol-4-yl)methyl)-2-oxooxazolidine-5-carboxamide]", "IC50": 31},
      {"compound": "O=C1NC[C@@H](C(=O)NC(c2ccc(Cl)cc2)c2coc(C(F)(F)F)n2)O1", "note": "(single isomer, unassigned) [Example 18B, (S)-N-((R or S)-(4-chlorophenyl)(2-(trifluoromethyl)oxazol-4-yl)methyl)-2-oxooxazolidine-5-carboxamide]", "IC50": 272},
      {"compound": "O=C1NC[C@@H](C(=O)NC(c2ccc(Cl)cc2)c2ccc(F)c(Cl)c2)O1", "note": "(single isomer, unassigned) [Example 19A, (S)—N—((R or S)-(3-chloro-4-fluorophenyl)(4-chlorophenyl)methyl)-2-oxooxazolidine-5-carboxamide]", "IC50": 0.9},
      {"compound": "O=C1NC[C@@H](C(=O)NC(c2ccc(Cl)cc2)c2ccc(F)c(Cl)c2)O1", "note": "(single isomer, unassigned) [Example 19B, (S)—N—((R or S)-(3-chloro-4-fluorophenyl)(4-chlorophenyl)methyl)-2-oxooxazolidine-5-carboxamide]", "IC50": 2.4},
      {"compound": "COc1ccc(C(NC(=O)[C@@H]2CNC(=O)O2)c2ccc(Cl)cc2)cn1", "note": "(single isomer, unassigned) [Example 22A, (S)-N-((R or S)-(4-chlorophenyl)(6-methoxypyridin-3-yl)methyl)-2-oxooxazolidine-5-carboxamide]", "IC50": 130},
      {"compound": "COc1ccc(C(NC(=O)[C@@H]2CNC(=O)O2)c2ccc(Cl)cc2)cn1", "note": "(single isomer, unassigned) [Example 22B, (S)-N-((R or S)-(4-chlorophenyl)(6-methoxypyridin-3-yl)methyl)-2-oxooxazolidine-5-carboxamide]", "IC50": 314},
      {"compound": "O=C1NC[C@@H](C(=O)NC(c2ccc(Cl)cc2)c2ccc(F)cn2)O1", "note": "(single isomer, unassigned) [Example 23A, (S)-N-((R or S)-(4-chlorophenyl)(5-fluoropyridin-2-yl)methyl)-2-oxooxazolidine-5-carboxamide]", "IC50": 1350},
      {"compound": "O=C1NC[C@@H](C(=O)NC(c2ccc(Cl)cc2)c2ccc(F)cn2)O1", "note": "(single isomer, unassigned) [Example 23B, (S)-N-((R or S)-(4-chlorophenyl)(5-fluoropyridin-2-yl)methyl)-2-oxooxazolidine-5-carboxamide]", "IC50": 233},
      {"compound": "O=C1NC[C@@H](C(=O)NC(c2ccccc2)c2ccc(Cl)c(Cl)c2)O1", "note": "(single isomer, unassigned) [Example 25A, (S)-N-((R or S)-(3,4-dichlorophenyl) (phenyl)methyl)-2-oxooxazolidine-5-carboxamide]", "IC50": 2.7},
      {"compound": "O=C1NC[C@@H](C(=O)NC(c2ccccc2)c2ccc(Cl)c(Cl)c2)O1", "note": "(single isomer, unassigned) [Example 25B, (S)-N-((R or S)-(3,4-dichlorophenyl) (phenyl)methyl)-2-oxooxazolidine-5-carboxamide]", "IC50": 14},
      {"compound": "O=C1NC[C@@H](C(=O)NC(c2cccc(Cl)c2)C2CC2c2ccccc2)O1", "note": "(single isomer, unassigned) [Example 26A, (5S)-N-((R or S)-(3-chlorophenyl) ((cis or trans)-2-phenylcyclopropyl)methyl)-2-oxooxazolidine-5-carboxamide]", "IC50": 326},
      {"compound": "O=C1NC[C@@H](C(=O)NC(c2cccc(Cl)c2)C2CC2c2ccccc2)O1", "note": "(single isomer, unassigned) [Example 26B, (5S)-N-((R or S)-(3-chlorophenyl) ((cis or trans)-2-phenylcyclopropyl)methyl)-2-oxooxazolidine-5-carboxamide]", "IC50": 70},
      {"compound": "COc1ccc(Cl)cc1C(NC(=O)[C@@H]1CNC(=O)O1)c1cccc(Cl)c1", "note": "(single isomer, unassigned) [Example 28A, (S)-N-((R or S)-(5-chloro-2-methoxyphenyl)(3-chlorophenyl)methyl)-2-oxooxazolidine-5-carboxamide]", "IC50": 21},
      {"compound": "COc1ccc(Cl)cc1C(NC(=O)[C@@H]1CNC(=O)O1)c1cccc(Cl)c1", "note": "(single isomer, unassigned) [Example 28B, (S)-N-((R or S)-(5-chloro-2-methoxyphenyl)(3-chlorophenyl)methyl)-2-oxooxazolidine-5-carboxamide]", "IC50": 8.4},
      {"compound": "O=C1NC[C@@H](C(=O)NC(c2ccc(Cl)cc2)c2cccc(F)c2F)O1", "note": "(single isomer, unassigned) [Example 29A, (S)-N-((R or S)-(4-chlorophenyl)(2,3-difluorophenyl)methyl)-2-oxooxazolidine-5-carboxamide]", "IC50": 14},
      {"compound": "O=C1NC[C@@H](C(=O)NC(c2ccc(Cl)cc2)c2cccc(F)c2F)O1", "note": "(single isomer, unassigned) [Example 29B, (S)-N-((R or S)-(4-chlorophenyl)(2,3-difluorophenyl)methyl)-2-oxooxazolidine-5-carboxamide]", "IC50": 74},
      {"compound": "CC(C)c1cccc(C(NC(=O)[C@@H]2CNC(=O)O2)c2ccc(Cl)cc2)c1", "note": "(single isomer, unassigned) [Example 32A, (S)-N-((R or S)-(4-chlorophenyl)(3-isopropylphenyl)methyl)-2-oxooxazolidine-5-carboxamide]", "IC50": 5},
      {"compound": "CC(C)c1cccc(C(NC(=O)[C@@H]2CNC(=O)O2)c2ccc(Cl)cc2)c1", "note": "(single isomer, unassigned) [Example 32B, (S)-N-((R or S)-(4-chlorophenyl)(3-isopropylphenyl)methyl)-2-oxooxazolidine-5-carboxamide]", "IC50": 12},
      {"compound": "O=C1NC[C@@H](C(=O)NC(c2ccc(Cl)cc2)c2cccc(C3CC3)c2)O1", "note": "(single isomer, unassigned) [Example 33A, (S)-N-((R or S)-(4-chlorophenyl)(3-cyclopropylphenyl)methyl)-2-oxooxazolidine-5-carboxamide]", "IC50": 4.8},
      {"compound": "O=C1NC[C@@H](C(=O)NC(c2ccc(Cl)cc2)c2cccc(C3CC3)c2)O1", "note": "(single isomer, unassigned) [Example 33B, (S)-N-((R or S)-(4-chlorophenyl)(3-cyclopropylphenyl)methyl)-2-oxooxazolidine-5-carboxamide]", "IC50": 9.4},
      {"compound": "O=C1NC[C@@H](C(=O)NC(c2ccc(Cl)cc2)c2ccc(Cl)c(C(F)(F)F)c2)O1", "note": "(single isomer, unassigned) [Example 35A, (S)-N-((R or S)-(4-chloro-3-(trifluoromethyl)phenyl)(4-chlorophenyl)methyl)-2-oxooxazolidine-5-carboxamide]", "IC50": 0.4},
      {"compound": "O=C1NC[C@@H](C(=O)NC(c2ccc(Cl)cc2)c2ccc(Cl)c(C(F)(F)F)c2)O1", "note": "(single isomer, unassigned) [Example 35B, (S)-N-((R or S)-(4-chloro-3-(trifluoromethyl)phenyl)(4-chlorophenyl)methyl)-2-oxooxazolidine-5-carboxamide]", "IC50": 3.8},
      {"compound": "O=C1NC[C@@H](C(=O)NC(c2ccc(Cl)cc2)c2ccc(C(F)(F)F)cn2)O1", "note": "(single isomer, unassigned) [Example 37A, (S)-N-((R or S)-(4-chlorophenyl)(5-(trifluoromethyl)pyridin-2-yl)methyl)-2-oxooxazolidine-5-carboxamide]", "IC50": 113},
      {"compound": "O=C1NC[C@@H](C(=O)NC(c2ccc(Cl)cc2)c2ccc(C(F)(F)F)cn2)O1", "note": "(single isomer, unassigned) [Example 37B, (S)-N-((R or S)-(4-chlorophenyl)(5-(trifluoromethyl)pyridin-2-yl)methyl)-2-oxooxazolidine-5-carboxamide]", "IC50": 26},
      {"compound": "CC(C)(C)c1csc(C(NC(=O)[C@@H]2CNC(=O)O2)c2ccc(Cl)cc2)n1", "note": "(single isomer, unassigned) [Example 39A, (S)-N-((R or S)-(4-(tert-butyl)thiazol-2-yl)(4-chlorophenyl)methyl)-2-oxooxazolidine-5-carboxamide]", "IC50": 5.1},
      {"compound": "CC(C)(C)c1csc(C(NC(=O)[C@@H]2CNC(=O)O2)c2ccc(Cl)cc2)n1", "note": "(single isomer, unassigned) [Example 39B, (S)-N-((R or S)-(4-(tert-butyl)thiazol-2-yl)(4-chlorophenyl)methyl)-2-oxooxazolidine-5-carboxamide]", "IC50": 64},
      {"compound": "O=C1NC[C@@H](C(=O)NC(c2ccc(Cl)cc2)C2CCN(CC(F)(F)F)CC2)O1", "note": "(single isomer, unassigned) [Example 42A, (S)-N-((R or S)-(4-chlorophenyl)(1-(2,2,2-trifluoroethyl)piperidin-4-yl)methyl)-2-oxooxazolidine-5-carboxamide]", "IC50": 936},
      {"compound": "O=C1NC[C@@H](C(=O)NC(c2ccc(Cl)cc2)C2CCN(CC(F)(F)F)CC2)O1", "note": "(single isomer, unassigned) [Example 42B, (S)-N-((R or S)-(4-chlorophenyl)(1-(2,2,2-trifluoroethyl)piperidin-4-yl)methyl)-2-oxooxazolidine-5-carboxamide]", "IC50": 272},
      {"compound": "O=C1NC[C@@H](C(=O)NC(c2ccc(F)c(Cl)c2)C2CCN(CC(F)(F)F)C2)O1", "note": "(single isomer, unassigned) [Example 43A, (S)-N-((R or S)-(3-chloro-4-fluorophenyl)((R or S)-1-(2,2,2-trifluoroethyl)pyrrolidin-3-yl)methyl)-2-oxooxazolidine-5-carboxamide]", "IC50": 1760},
      {"compound": "O=C1NC[C@@H](C(=O)NC(c2ccc(F)c(Cl)c2)C2CCN(CC(F)(F)F)C2)O1", "note": "(single isomer, unassigned) [Example 43B, (S)-N-((R or S)-(3-chloro-4-fluorophenyl)((R or S)-1-(2,2,2-trifluoroethyl)pyrrolidin-3-yl)methyl)-2-oxooxazolidine-5-carboxamide]", "IC50": 807},
      {"compound": "O=C1NC[C@@H](C(=O)NC(c2ccc(F)c(Cl)c2)c2csc(C(F)(F)F)n2)O1", "note": "(single isomer, unassigned) [Example 44A, (S)—N—((R or S)-(3-chloro-4-fluorophenyl)(2-(trifluoromethyl)thiazol-4-yl)methyl)-2-oxooxazolidine-5-carboxamide]", "IC50": 4.6}
    ]}
  ]
}
